Source: ChEMBL document CHEMBL1201862, “PubChem BioAssay data set” (2004)
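Where inhibition never reached the appropriate level, the endpoint shown equals the highest concentration tested. Otherwise, values were interpolated linearly from a five-concentration, 48-hour dose response in 96-well plates. GI50 is the concentration that inhibits growth by half.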 Active and inactive are the calls of the source. Cut-off read from the data, not from the text of the source: active = GI50 up to about 1.1 µM and inactive = higher.

What was measured:
Test in all cases: NCI tumour cell line growth inhibition, 48 h
[1] = tested on: CAKI-1
[2] = tested on: EKVX
[3] = tested on: TK-10
[4] = tested on: SR
[5] = tested on: HCT-116
[6] = tested on: SNB-19
[7] = tested on: COLO 205
[8] = tested on: ACHN
[9] = tested on: NCI-H460
[10] = tested on: M14
[11] = tested on: KM12
[12] = tested on: HT-29
[13] = tested on: NCI-H23
[14] = tested on: A498
[15] = tested on: SF-268
[16] = tested on: HOP-92
[17] = tested on: RXF 393

Measured: GI50

CCOC(=O)CNC(=O)c1nc[nH]c1/N=N/N(C)C
inactive: [1] > 100 µM | [2] > 100 µM | [3] > 100 µM | [4] > 100 µM | [5] > 100 µM | [6] > 100 µM | [7] > 100 µM | [8] > 100 µM | [9] > 100 µM | [10] > 100 µM | [11] > 100 µM | [12] > 100 µM | [13] > 100 µM | [14] > 100 µM | [15] > 100 µM

CC(=O)NNc1nc(C)c(C(=O)/C=C/c2ccc(NC(C)=O)cc2)s1
inactive: [1] > 100 µM | [2] 71.3 µM | [16] > 100 µM | [3] > 100 µM | [6] > 100 µM | [7] > 100 µM | [8] > 100 µM | [9] > 100 µM | [17] > 100 µM | [11] > 100 µM | [12] > 100 µM | [13] > 100 µM | [14] > 100 µM | [15] > 100 µM

CC1(C)OC2COC3(CNO)OC(C)(C)OC3C2O1 (stereo not drawn)
inactive: [1] > 100 µM | [2] > 100 µM | [16] 65.8 µM | [3] > 100 µM | [5] > 100 µM | [6] > 100 µM | [7] > 100 µM | [8] > 100 µM | [9] > 100 µM | [17] > 100 µM | [10] > 100 µM | [11] > 100 µM | [12] > 100 µM | [13] > 100 µM | [14] > 100 µM | [15] > 100 µM

COc1ccc(OC)c2c(C(=O)O)c(Cc3ccccc3)ccc12
inactive: [1] > 100 µM | [2] > 100 µM | [3] > 100 µM | [4] > 100 µM | [5] > 100 µM | [6] > 100 µM | [7] > 100 µM | [8] > 100 µM | [9] > 100 µM | [17] > 100 µM | [10] > 100 µM | [11] > 100 µM | [12] > 100 µM | [13] > 100 µM | [14] > 100 µM | [15] > 100 µM

CCCCCCCCCCCCOC(=S)NC
inactive: [2] 20.4 µM | [16] 15.5 µM | [3] 12.8 µM | [4] 14.1 µM | [5] 16.9 µM | [6] 33.4 µM | [8] 20 µM | [9] 18.5 µM | [17] 16.6 µM | [10] 19.7 µM | [11] 14.3 µM | [12] 18.6 µM | [13] 20.4 µM | [14] 18.1 µM | [15] 20.2 µM

CCN(CC)CCC(=O)/C=C/c1ccc(C)cc1
inactive: [1] 1.83 µM | [2] 17.1 µM | [16] 19.2 µM | [3] 6.85 µM | [4] 6.78 µM | [5] 13.4 µM | [6] 19.3 µM | [7] 4.72 µM | [8] 14.4 µM | [9] 15.7 µM | [17] 15.3 µM | [10] 13.7 µM | [11] 3.18 µM | [12] 15.1 µM | [13] 17.1 µM | [14] 11.2 µM | [15] 15.8 µM

C/C(CC(=O)NCCc1ccccc1)=N\NC(=O)C[n+]1ccccc1
inactive: [2] > 100 µM | [16] > 100 µM | [3] > 100 µM | [5] > 100 µM | [7] > 100 µM | [8] > 100 µM | [9] > 100 µM | [17] > 100 µM | [10] > 100 µM | [11] > 100 µM | [12] > 100 µM | [13] > 100 µM | [14] > 100 µM | [15] > 100 µM

COC1C=C(Nc2cccc(Cl)c2)C(=O)C1 (stereo not drawn)
inactive: [1] 50.9 µM | [2] 29.4 µM | [16] 39.5 µM | [3] > 100 µM | [4] 58.3 µM | [5] 40.2 µM | [6] 64.3 µM | [7] 10.4 µM | [8] 60 µM | [9] 44.4 µM | [17] 23.4 µM | [10] > 100 µM | [11] 71 µM | [12] 65.3 µM | [13] 41.5 µM | [14] 15.7 µM | [15] 45.8 µM

COC(=O)C(CC(=O)c1ccccc1)c1ccccc1NC(C)=O (stereo not drawn)
inactive: [1] > 100 µM | [2] > 100 µM | [16] > 100 µM | [3] > 100 µM | [4] > 100 µM | [5] > 100 µM | [6] > 100 µM | [7] > 100 µM | [8] > 100 µM | [9] > 100 µM | [10] > 100 µM | [11] > 100 µM | [12] > 100 µM | [13] > 100 µM | [14] > 100 µM | [15] > 100 µM

CCOC(=O)NC1C2CC(=O)C(O2)C1OCc1ccccc1 (stereo not drawn)
inactive: [1] > 100 µM | [16] > 100 µM | [7] > 100 µM | [8] > 100 µM | [9] > 100 µM | [17] > 100 µM | [10] > 100 µM | [11] > 100 µM | [12] > 100 µM | [13] > 100 µM | [14] > 100 µM | [15] > 100 µM

[O-][S+]1c2ccccc2NC(c2ccc3ccccc3c2)CC1c1ccccc1 (stereo not drawn)
inactive: [1] 26.8 µM | [2] 26.6 µM | [3] 35.4 µM | [6] 30.6 µM | [7] 29.9 µM | [8] 20.8 µM | [9] 19.5 µM | [17] 14.8 µM | [10] 40.5 µM | [11] 16.7 µM | [12] 22.3 µM | [13] 16.7 µM | [15] 36.4 µM

CC(=O)Nc1ccc(/C=c2\sc3nnc(CCC(=O)Nc4ccccc4Cl)n3c2=O)cc1
inactive: [1] > 100 µM | [2] > 100 µM | [16] 27.4 µM | [3] 37.8 µM | [4] 20.3 µM | [5] 37.7 µM | [6] 38.9 µM | [8] > 100 µM | [9] > 10 µM | [17] 27.3 µM | [10] 16.7 µM | [11] 20.9 µM | [12] 54.2 µM | [13] 46.3 µM | [15] 26.4 µM

O=c1cc(-c2ccccc2)[nH]c2c(Cl)cccc12
inactive: [2] 49.5 µM | [3] > 100 µM | [4] 7.53 µM | [5] 7.24 µM | [6] 20.5 µM | [7] 29.7 µM | [8] 78 µM | [9] 8.2 µM | [17] 15.7 µM | [10] 9.31 µM | [12] 20.8 µM | [13] 63.2 µM | [14] 14.2 µM | [15] 38.4 µM

C=CCOCCCC(=O)C(=[N+]=[N-])C(=O)OC
inactive: [1] > 100 µM | [16] > 100 µM | [3] > 100 µM | [4] > 100 µM | [5] > 100 µM | [6] > 100 µM | [7] > 100 µM | [8] > 100 µM | [9] > 100 µM | [17] > 100 µM | [10] > 100 µM | [11] > 100 µM | [12] > 100 µM | [13] > 100 µM | [14] > 100 µM | [15] > 100 µM

COc1ccc2nc(C(=O)c3ccccc3)c(C)cc2c1
inactive: [1] 7.91 µM | [2] 5.26 µM | [16] 7.13 µM | [3] 11.1 µM | [4] 2.81 µM | [5] 4.63 µM | [6] 9.16 µM | [7] 5.93 µM | [8] 10 µM | [9] 7.24 µM | [17] 2.7 µM | [10] 3.74 µM | [11] 6.58 µM | [12] 3.59 µM | [13] 3.71 µM | [14] 2.74 µM | [15] 6.76 µM

CN(C)c1ccc(/C=C2\N=C(c3ccc(N)cc3)OC2=O)cc1
inactive: [1] > 100 µM | [2] > 100 µM | [16] > 100 µM | [3] > 100 µM | [6] > 100 µM | [7] > 100 µM | [8] > 100 µM | [9] > 100 µM | [10] > 100 µM | [11] > 100 µM | [12] > 100 µM | [13] > 100 µM | [14] > 100 µM | [15] > 100 µM

CC1CC2(S(=O)(=O)c3ccccc3)ON1CC2S(=O)(=O)c1ccccc1 (stereo not drawn)
inactive: [1] > 100 µM | [2] > 100 µM | [3] > 100 µM | [4] > 100 µM | [5] > 100 µM | [6] > 100 µM | [7] > 100 µM | [8] > 100 µM | [9] > 100 µM | [17] > 100 µM | [10] > 100 µM | [11] > 100 µM | [12] > 100 µM | [13] > 100 µM | [15] > 100 µM

N#CC(C(=O)CCC(=O)Nc1ccc(Cl)cc1)c1ccccc1Cl (stereo not drawn)
inactive: [1] 89.3 µM | [2] > 100 µM | [16] > 100 µM | [3] > 100 µM | [5] 61.1 µM | [6] > 100 µM | [7] > 100 µM | [8] 54.8 µM | [9] > 100 µM | [10] 47.8 µM | [11] 43.1 µM | [13] 93.1 µM | [14] > 100 µM | [15] 32.1 µM

Cc1cccc2c3ccc4c(c3n(C)c12)C(=O)C=CC4=O
inactive: [1] > 100 µM | [2] > 100 µM | [16] > 100 µM | [3] > 100 µM | [4] 29.3 µM | [5] > 100 µM | [6] > 100 µM | [7] > 100 µM | [10] > 100 µM | [11] > 100 µM | [12] > 100 µM | [13] 18.6 µM | [15] > 100 µM
